Drawing on patent US20180334436A1 (VIIV HEALTHCARE UK LIMITED, priority 2015, published 2018), this text covers IC50 for 28 compounds.

Each structure is given as a SMILES string.

By IC50 is commonly meant the concentration needed to halve the response being measured.

The assay deals with HIV. The experiment in a line: MT4 assay (anti-HIV activity). The format is cell-based. Particulars: Human immunodeficiency virus 1, 96 h, antiviral HIV activity in HTLV-1 transformed cell line MT-4; luciferase read 96 hours later; 10 point dose response. In short, it runs like this:
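MT-4 cells infected with HIV, with inhibition readout by CellTiter-Glo luminescence at 96 h relative to no-compound control. Cytotoxicity measured in parallel under the same conditions. IC50 from a 10-point, 3-4-fold dilution series spanning >1000-fold, fitted with a four-parameter logistic equation.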
For the compound `Cc1ccc(-c2c(C)c3c(c(C)c2[C@H](OC(C)(C)C)C(=O)O)CCN(C2CC4CCC2C4)C3)cc1` (stereo partly drawn) [Example 49, (2S)-2-(2-(bicyclo[2.2.1]heptan-2-yl)-5,8-dimethyl-7-(p-tolyl)-1,2,3,4-tetrahydroisoquinolin-6-yl)-2-(tert-butoxy)acetic Acid], the IC50 was found to be 11 nM.

Take `Cc1ccc(-c2c(C)c3c(c(C)c2[C@H](OC(C)(C)C)C(=O)O)CCN(C2CCCCCC2)C3)cc1` [Example 50, (S)-2-(tert-butoxy)-2-(2-cycloheptyl-5,8-dimethyl-7-(p-tolyl)-1,2,3,4-tetrahydroisoquinolin-6-yl)acetic Acid]: the concentration for half-maximal inhibition (IC50) was determined as 5 nM. For `Cc1ccc(-c2c(C)c3c(c(C)c2[C@H](OC(C)(C)C)C(=O)O)CCN(C2CCC4(CC2)CC4)C3)cc1` [Example 51, (S)-2-(tert-butoxy)-2-(5,8-dimethyl-2-(spiro[2.5]octan-6-yl)-7-(p-tolyl)-1,2,3,4-tetrahydroisoquinolin-6-yl)acetic Acid] the value was 11 nM. For `Cc1ccc(-c2c(C)c3c(c(C)c2[C@H](OC(C)(C)C)C(=O)O)CCN(C2CCCC(C)(C)C2)C3)cc1` (stereo partly drawn) [Example 52, (2S)-2-(tert-butoxy)-2-(2-(3,3-dimethylcyclohexyl)-5,8-dimethyl-7-(p-tolyl)-1,2,3,4-tetrahydroisoquinolin-6-yl)acetic Acid] the value was 10 nM; for `Cc1ccc(-c2c(C)c3c(c(C)c2[C@H](OC(C)(C)C)C(=O)O)CCN(C(=O)CN2CCCCC2)C3)cc1` [Example 53, (S)-2-(tert-butoxy)-2-(5,8-dimethyl-2-(2-(piperidin-1-yl)acetyl)-7-(p-tolyl)-1,2,3,4-tetrahydroisoquinolin-6-yl)acetic Acid], 807 nM; for `Cc1ccc(-c2c(C)c3c(c(C)c2[C@H](OC(C)(C)C)C(=O)O)CCN(CC(=O)N2CCCCC2)C3)cc1` [Example 54, (S)-2-(tert-butoxy)-2-(5,8-dimethyl-2-(2-oxo-2-(piperidin-1-yl)ethyl)-7-(p-tolyl)-1,2,3,4-tetrahydroisoquinolin-6-yl)acetic Acid], 309 nM. For `Cc1ccc(-c2c(C)c3c(c(C)c2[C@H](OC(C)(C)C)C(=O)O)CCN(Cc2ccccc2)C3)cc1` [Example 55, (S)-2-(2-benzyl-5,8-dimethyl-7-(p-tolyl)-1,2,3,4-tetrahydroisoquinolin-6-yl)-2-(tert-butoxy)acetic Acid] the value was 349 nM.

`Cc1ccc(-c2c(C)c3c(c(C)c2[C@H](OC(C)(C)C)C(=O)O)CCN(C2CCC(F)(F)CC2)C3)cc1` [Example 56, (S)-2-(tert-butoxy)-2-(2-(4,4-difluorocyclohexyl)-5,8-dimethyl-7-(p-tolyl)-1,2,3,4-tetrahydroisoquinolin-6-yl)acetic Acid]: the concentration for half-maximal inhibition (IC50) was 14 nM. In the case of `Cc1ccc(-c2c(C)c3c(c(C)c2[C@H](OC(C)(C)C)C(=O)O)CCN(S(=O)(=O)c2cccc(F)c2)C3)cc1` [Example 57, (S)-2-(tert-butoxy)-2-(2-((3-fluorophenyl)sulfonyl)-5,8-dimethyl-7-(p-tolyl)-1,2,3,4-tetrahydroisoquinolin-6-yl)acetic Acid], the IC50 was 292 nM.

With `Cc1ccc(-c2c(C)c3c(c(C)c2[C@H](OC(C)(C)C)C(=O)O)CCN(S(=O)(=O)CC2CCCCC2)C3)cc1` [Example 58, (S)-2-(tert-butoxy)-2-(2-((cyclohexylmethyl)sulfonyl)-5,8-dimethyl-7-(p-tolyl)-1,2,3,4-tetrahydroisoquinolin-6-yl)acetic Acid], the IC50 was 284 nM. For `Cc1ccc(-c2c(C)c3c(c(C)c2[C@H](OC(C)(C)C)C(=O)O)CCN(C2CCC4CCC2C4)C3)cc1` (stereo partly drawn) [Example 60, (2S)-2-(2-(bicyclo[3.2.1]octan-2-yl)-5,8-dimethyl-7-(p-tolyl)-1,2,3,4-tetrahydroisoquinolin-6-yl)-2-(tert-butoxy)acetic Acid] the value was 5 nM; for `Cc1ccc(-c2c(C)c3c(c(C)c2[C@H](OC(C)(C)C)C(=O)O)CCN(C2CCC2)C3)cc1` [Example 61, (S)-2-(tert-butoxy)-2-(2-cyclobutyl-5,8-dimethyl-7-(p-tolyl)-1,2,3,4-tetrahydroisoquinolin-6-yl)acetic Acid], 141 nM. To `Cc1ccc(-c2c(C)c3c(c(C)c2[C@H](OC(C)(C)C)C(=O)O)CCN(S(=O)(=O)CC(C)(C)C)C3)cc1` [Example 62, (S)-2-(tert-butoxy)-2-(5,8-dimethyl-2-(neopentylsulfonyl)-7-(p-tolyl)-1,2,3,4-tetrahydroisoquinolin-6-yl)acetic Acid] belongs 11 nM. To `Cc1ccc(-c2c(C)c3c(c(C)c2[C@H](OC(C)(C)C)C(=O)O)CCN(S(=O)(=O)NC2CCCCC2)C3)cc1` [Example 63, (S)-2-(tert-butoxy)-2-(2-(N-cyclohexylsulfamoyl)-5,8-dimethyl-7-(p-tolyl)-1,2,3,4-tetrahydroisoquinolin-6-yl)acetic Acid] belongs 119 nM.

Turning to `COc1c(F)cccc1S(=O)(=O)N1CCc2c(C)c([C@H](OC(C)(C)C)C(=O)O)c(-c3ccc(C)cc3)c(C)c2C1` [Example 64, (S)-2-(tert-butoxy)-2-(2-((3-fluoro-2-methoxyphenyl)sulfonyl)-5,8-dimethyl-7-(p-tolyl)-1,2,3,4-tetrahydroisoquinolin-6-yl)acetic Acid], the half-inhibitory concentration (IC50) turned out to be 89 nM. As for `Cc1ccc(-c2c(C)c3c(c(C)c2[C@H](OC(C)(C)C)C(=O)O)CCN(S(=O)(=O)C2CCCC2)C3)cc1` [Example 65, (S)-2-(tert-butoxy)-2-(2-(cyclopentylsulfonyl)-5,8-dimethyl-7-(p-tolyl)-1,2,3,4-tetrahydroisoquinolin-6-yl)acetic Acid], the concentration for half-maximal inhibition (IC50) came out at 12 nM. `Cc1ccc(-c2c(C)c3c(c(C)c2[C@H](OC(C)(C)C)C(=O)O)CCN(S(=O)(=O)C(C)C)C3)cc1` [Example 66, (S)-2-(tert-butoxy)-2-(2-(isopropylsulfonyl)-5,8-dimethyl-7-(p-tolyl)-1,2,3,4-tetrahydroisoquinolin-6-yl)acetic Acid]: the IC50 came out at 48 nM. Consider `Cc1ccc(-c2c(C)c3c(c(C)c2[C@H](OC(C)(C)C)C(=O)O)CCN(S(=O)(=O)C2CCCCCC2)C3)cc1` [Example 68, (S)-2-(tert-butoxy)-2-(2-(cycloheptylsulfonyl)-5,8-dimethyl-7-(p-tolyl)-1,2,3,4-tetrahydroisoquinolin-6-yl)acetic Acid], for which the half-inhibitory concentration (IC50) was 50 nM. Consider `Cc1ccc(-c2c(C)c3c(c(C)c2[C@H](OC(C)(C)C)C(=O)O)CCN(C2CCCCCCC2)C3)cc1` [Example 69, (S)-2-(tert-butoxy)-2-(2-cyclooctyl-5,8-dimethyl-7-(p-tolyl)-1,2,3,4-tetrahydroisoquinolin-6-yl)acetic Acid], for which the 50% inhibitory concentration (IC50) was 6 nM. As to `Cc1ccc(-c2c(C)c3c(c(C)c2[C@H](OC(C)(C)C)C(=O)O)CCN(C(C)C2CCCCC2)C3)cc1` (stereo partly drawn) [Example 70, (2S)-2-(tert-butoxy)-2-(2-(1-cyclohexylethyl)-5,8-dimethyl-7-(p-tolyl)-1,2,3,4-tetrahydroisoquinolin-6-yl)acetic Acid], the concentration for half-maximal inhibition (IC50) is 130 nM. For `Cc1ccc(-c2c(C)c3c(c(C)c2[C@H](OC(C)(C)C)C(=O)O)CCN(C2CCC[C@@H](C)C2)C3)cc1` (stereo partly drawn) [Example 72, (2S)-2-(tert-butoxy)-2-(5,8-dimethyl-2-((3R)-3-methylcyclohexyl)-7-(p-tolyl)-1,2,3,4-tetrahydroisoquinolin-6-yl)acetic Acid] the value was 23 nM; for `Cc1ccc(-c2c(C)c3c(c(C)c2[C@H](OC(C)(C)C)C(=O)O)CCN(C2CC[C@@H](C)C2)C3)cc1` (stereo partly drawn) [Example 73, (2S)-2-(tert-butoxy)-2-(5,8-dimethyl-2-((3R)-3-methylcyclopentyl)-7-(p-tolyl)-1,2,3,4-tetrahydroisoquinolin-6-yl)acetic Acid], 42 nM. For the compound `Cc1ccc(-c2c(C)c3c(c(C)c2[C@H](OC(C)(C)C)C(=O)O)CCN(C2CC4CCC(C4)C2)C3)cc1` (stereo partly drawn) [Example 74, (2S)-2-(2-(bicyclo[3.2.1]octan-3-yl)-5,8-dimethyl-7-(p-tolyl)-1,2,3,4-tetrahydroisoquinolin-6-yl)-2-(tert-butoxy)acetic Acid], the IC50 worked out at 12 nM. As to `Cc1ccc(-c2c(C)c3c(c(C)c2[C@H](OC(C)(C)C)C(=O)O)CCN(C(=O)C2CCCCCC2)C3)cc1` [Example 75, (S)-2-(tert-butoxy)-2-(2-(cycloheptanecarbonyl)-5,8-dimethyl-7-(p-tolyl)-1,2,3,4-tetrahydroisoquinolin-6-yl)acetic Acid], the IC50 was 51 nM.

On to `Cc1ccc(-c2c(C)c3c(c(C)c2[C@H](OC(C)(C)C)C(=O)O)CCN(C(=O)C2(C)CCCCC2)C3)cc1` [Example 76, (S)-2-(tert-butoxy)-2-(5,8-dimethyl-2-(1-methylcyclohexanecarbonyl)-7-(p-tolyl)-1,2,3,4-tetrahydroisoquinolin-6-yl)acetic Acid], for which the IC50 was 41 nM.

For `Cc1ccc(-c2c(C)c3c(c(C)c2[C@H](OC(C)(C)C)C(=O)O)CCN(C2CCc4ccccc4C2)C3)cc1` (stereo partly drawn) [Example 77, (2S)-2-(tert-butoxy)-2-(5,8-dimethyl-2-(1,2,3,4-tetrahydronaphthalen-2-yl)-7-(p-tolyl)-1,2,3,4-tetrahydroisoquinolin-6-yl)acetic Acid], the IC50 stood at 40 nM. On to `Cc1ccc(-c2c(C)c3c(c(C)c2[C@H](OC(C)(C)C)C(=O)O)CCN(C(=O)C2CCc4ccccc4C2)C3)cc1` (stereo partly drawn) [Example 78, (2S)-2-(tert-butoxy)-2-(5,8-dimethyl-2-(1,2,3,4-tetrahydronaphthalene-2-carbonyl)-7-(p-tolyl)-1,2,3,4-tetrahydroisoquinolin-6-yl)acetic Acid], for which the IC50 amounted to 109 nM.

As for `Cc1c(-c2c(C)c3c(c(C)c2[C@H](OC(C)(C)C)C(=O)O)CCN(C(=O)C2CCCCC2)C3)cc(F)c2c1CCCO2` [Example 79, (S)-2-(tert-Butoxy)-2-((R)-2-(cyclohexanecarbonyl)-7-(8-fluoro-5-methylchroman-6-yl)-5,8-dimethyl-1,2,3,4-tetrahydroisoquinolin-6-yl)acetic Acid], the IC50 was 35 nM.
